Measurements as given in ChEMBL document CHEMBL3431459, “Roche carnitine palmitoyltransferase modulator screening data (supplementary data associated with the publication CHEMBL2216752)”.
In brackets after ≈: the same amount, converted by molar mass.

What was measured:
[1] = molecular target: T1, Carnitine O-palmitoyltransferase 1, liver isoform (Homo sapiens, UniProt P50416); assay: (§1) SUPPLEMENTARY: Inhibition of Carnitine palmitoyltransferase 1, liver isoform
T1 sequence (P50416 whole entry): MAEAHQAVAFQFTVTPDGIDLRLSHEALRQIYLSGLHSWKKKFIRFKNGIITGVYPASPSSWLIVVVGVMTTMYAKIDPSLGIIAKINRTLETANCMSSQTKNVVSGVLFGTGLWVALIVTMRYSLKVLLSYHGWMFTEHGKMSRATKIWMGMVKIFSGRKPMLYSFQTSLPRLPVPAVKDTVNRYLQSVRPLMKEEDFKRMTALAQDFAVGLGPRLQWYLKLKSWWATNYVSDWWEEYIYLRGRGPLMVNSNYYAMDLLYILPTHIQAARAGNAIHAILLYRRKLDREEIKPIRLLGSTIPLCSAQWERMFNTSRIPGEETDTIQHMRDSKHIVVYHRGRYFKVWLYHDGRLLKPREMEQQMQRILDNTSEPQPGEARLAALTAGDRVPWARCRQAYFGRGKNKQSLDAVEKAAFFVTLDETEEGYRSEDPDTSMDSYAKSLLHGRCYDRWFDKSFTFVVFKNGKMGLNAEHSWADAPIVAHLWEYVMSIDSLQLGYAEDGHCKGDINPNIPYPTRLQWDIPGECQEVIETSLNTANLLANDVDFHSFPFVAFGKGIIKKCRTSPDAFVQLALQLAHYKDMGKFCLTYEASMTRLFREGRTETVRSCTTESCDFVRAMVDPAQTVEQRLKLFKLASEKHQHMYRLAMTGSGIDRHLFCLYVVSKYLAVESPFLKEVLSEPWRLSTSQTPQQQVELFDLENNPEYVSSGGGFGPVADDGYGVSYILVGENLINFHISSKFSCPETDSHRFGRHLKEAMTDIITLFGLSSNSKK

[2] = molecular target: T2, Carnitine O-palmitoyltransferase 1, liver isoform (Rattus norvegicus, UniProt P32198); assay: as §1
T2 sequence (P32198 whole entry): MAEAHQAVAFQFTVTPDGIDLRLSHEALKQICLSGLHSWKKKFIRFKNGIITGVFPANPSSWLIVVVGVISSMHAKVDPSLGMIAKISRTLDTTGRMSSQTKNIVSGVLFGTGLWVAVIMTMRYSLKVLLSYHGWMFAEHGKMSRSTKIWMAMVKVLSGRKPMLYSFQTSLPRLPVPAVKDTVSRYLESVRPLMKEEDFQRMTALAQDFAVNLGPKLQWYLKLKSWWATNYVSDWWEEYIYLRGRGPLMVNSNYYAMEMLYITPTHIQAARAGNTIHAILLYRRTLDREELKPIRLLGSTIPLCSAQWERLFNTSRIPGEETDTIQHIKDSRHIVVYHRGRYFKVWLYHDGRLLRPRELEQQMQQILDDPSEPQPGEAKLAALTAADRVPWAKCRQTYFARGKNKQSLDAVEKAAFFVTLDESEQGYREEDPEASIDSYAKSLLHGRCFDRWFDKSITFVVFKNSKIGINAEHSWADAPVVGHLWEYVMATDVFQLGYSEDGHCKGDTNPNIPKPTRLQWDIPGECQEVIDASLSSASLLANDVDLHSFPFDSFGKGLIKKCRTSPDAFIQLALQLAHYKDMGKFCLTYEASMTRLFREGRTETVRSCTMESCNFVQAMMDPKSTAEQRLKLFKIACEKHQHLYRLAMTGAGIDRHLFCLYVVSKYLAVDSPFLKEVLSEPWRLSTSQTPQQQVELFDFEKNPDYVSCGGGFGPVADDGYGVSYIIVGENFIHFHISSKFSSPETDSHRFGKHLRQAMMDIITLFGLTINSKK

[3] = SUPPLEMENTARY: PAMPA permeability assay; format: physicochemical; settings: read-out: Permeability
[4] = SUPPLEMENTARY: Lyophilisation Solubility Assay (LYSA); format: physicochemical; settings: read-out: Kinetic_solubility
[5] = molecular target: T3, Carnitine O-palmitoyltransferase 1, muscle isoform (Homo sapiens, UniProt Q92523); assay: SUPPLEMENTARY: Inhibition of Carnitine palmitoyltransferase 1, muscle isoform; set-up: species or system Muscle tissue
T3 sequence (Q92523 whole entry): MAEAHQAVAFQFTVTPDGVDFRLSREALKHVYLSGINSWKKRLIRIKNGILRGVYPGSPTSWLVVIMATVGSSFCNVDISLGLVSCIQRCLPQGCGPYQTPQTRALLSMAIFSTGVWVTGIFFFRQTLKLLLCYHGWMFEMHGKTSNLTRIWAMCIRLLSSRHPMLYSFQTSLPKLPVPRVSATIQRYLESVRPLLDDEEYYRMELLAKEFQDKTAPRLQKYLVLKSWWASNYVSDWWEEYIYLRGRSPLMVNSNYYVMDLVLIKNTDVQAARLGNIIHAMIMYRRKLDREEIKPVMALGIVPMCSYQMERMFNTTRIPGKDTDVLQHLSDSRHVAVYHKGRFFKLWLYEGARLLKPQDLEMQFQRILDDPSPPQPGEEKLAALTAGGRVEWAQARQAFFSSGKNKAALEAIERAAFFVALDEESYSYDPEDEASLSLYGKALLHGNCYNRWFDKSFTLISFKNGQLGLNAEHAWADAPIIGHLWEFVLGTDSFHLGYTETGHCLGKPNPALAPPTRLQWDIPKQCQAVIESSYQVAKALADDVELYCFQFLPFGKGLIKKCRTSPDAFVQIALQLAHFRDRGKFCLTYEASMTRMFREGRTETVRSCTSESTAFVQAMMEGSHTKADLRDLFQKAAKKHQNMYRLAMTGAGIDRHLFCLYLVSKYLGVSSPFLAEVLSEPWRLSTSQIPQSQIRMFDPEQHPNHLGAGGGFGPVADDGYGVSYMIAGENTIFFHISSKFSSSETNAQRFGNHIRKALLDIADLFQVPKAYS

[6] = SUPPLEMENTARY: Lipophilicity (log D) Determination by high-throughput shake-flask; format: physicochemical; settings: octanol/water
[7] = molecular target: T4, Carnitine O-palmitoyltransferase 2, mitochondrial (Rattus norvegicus, UniProt P18886); assay: (§2) SUPPLEMENTARY: Inhibition of Carnitine palmitoyltransferase 2
T4 sequence (P18886 whole entry): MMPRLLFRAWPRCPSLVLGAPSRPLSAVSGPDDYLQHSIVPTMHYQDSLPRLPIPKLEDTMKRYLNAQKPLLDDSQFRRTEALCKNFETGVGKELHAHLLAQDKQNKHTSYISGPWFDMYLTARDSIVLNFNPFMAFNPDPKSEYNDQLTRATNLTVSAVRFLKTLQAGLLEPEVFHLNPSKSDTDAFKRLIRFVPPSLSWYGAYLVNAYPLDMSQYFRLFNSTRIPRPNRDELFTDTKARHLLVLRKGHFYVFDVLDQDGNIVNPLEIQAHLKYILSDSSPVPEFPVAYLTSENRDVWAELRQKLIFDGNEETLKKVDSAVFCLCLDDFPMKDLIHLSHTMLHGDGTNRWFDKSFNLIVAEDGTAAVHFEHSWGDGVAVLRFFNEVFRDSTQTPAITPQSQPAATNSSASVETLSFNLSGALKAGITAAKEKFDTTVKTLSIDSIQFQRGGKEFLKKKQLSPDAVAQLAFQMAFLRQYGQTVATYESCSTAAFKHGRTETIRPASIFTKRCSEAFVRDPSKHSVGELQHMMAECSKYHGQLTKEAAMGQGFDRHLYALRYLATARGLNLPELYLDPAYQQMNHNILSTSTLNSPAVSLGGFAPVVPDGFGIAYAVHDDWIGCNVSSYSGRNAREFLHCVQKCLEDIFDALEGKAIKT

[8] = molecular target: T5, Carnitine O-palmitoyltransferase 2, mitochondrial (Homo sapiens, UniProt P23786); assay: as §2
T5 sequence (P23786 whole entry): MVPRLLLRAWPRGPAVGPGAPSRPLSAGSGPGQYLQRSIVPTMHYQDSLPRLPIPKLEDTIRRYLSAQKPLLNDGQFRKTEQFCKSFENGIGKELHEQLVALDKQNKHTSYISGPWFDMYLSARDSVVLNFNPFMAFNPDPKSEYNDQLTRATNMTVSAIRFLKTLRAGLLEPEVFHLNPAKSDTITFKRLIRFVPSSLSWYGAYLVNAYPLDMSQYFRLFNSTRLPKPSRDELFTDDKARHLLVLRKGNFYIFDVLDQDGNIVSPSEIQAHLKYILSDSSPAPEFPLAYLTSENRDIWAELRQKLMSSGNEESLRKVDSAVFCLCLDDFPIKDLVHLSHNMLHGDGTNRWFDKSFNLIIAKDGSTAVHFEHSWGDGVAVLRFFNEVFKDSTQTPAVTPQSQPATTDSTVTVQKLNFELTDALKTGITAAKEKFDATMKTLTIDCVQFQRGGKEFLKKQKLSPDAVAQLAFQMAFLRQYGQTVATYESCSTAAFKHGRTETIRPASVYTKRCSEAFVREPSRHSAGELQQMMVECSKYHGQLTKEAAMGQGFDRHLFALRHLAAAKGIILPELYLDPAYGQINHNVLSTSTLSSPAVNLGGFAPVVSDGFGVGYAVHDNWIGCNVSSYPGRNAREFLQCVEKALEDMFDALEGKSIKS

| Structure (SMILES) | IC50 [1] | IC50 [2] | Papp [3] | solubility kinetic [4] | IC50 [5] | logD [6] | IC50 [7] | IC50 [8] |
| --- | --- | --- | --- | --- | --- | --- | --- | --- |
| O=C(O)c1ccc(NC(=O)c2ccc3c(c2)N(S(=O)(=O)c2cccc(Cl)c2)CC[S+]3[O-])cc1 (stereo not given) | 0.13 µM | 0.0955 µM | 2.8 nm/s | 0.003 mg/mL (≈ 5.94 µM) | 52.2 µM | -0.14 | > 100 µM | > 100 µM |
| Cc1cc(C)cc(S(=O)(=O)N2CC[S+]([O-])c3ccc(C(=O)Nc4ccc(C(=O)O)cc4)cc32)c1 (stereo not given) | 0.0598 µM | 0.0575 µM | 4.9 nm/s | 0.002 mg/mL (≈ 4.01 µM) | 37 µM | 0.1 | > 100 µM | 1.86 µM |
| COc1ccc(Cl)cc1CN1C(=O)C2(CC2)c2ccc(C(=O)Nc3nc(CC(=O)O)cs3)cc21 | 0.0911 µM | 0.0348 µM | 10.3 nm/s | 0.048 mg/mL (≈ 96.4 µM) | 2.76 µM | 2.7 | > 100 µM | > 100 µM |
| COc1ccc(Cl)cc1S(=O)(=O)Nc1cc(C(=O)Nc2ccccc2)ccc1CCC(=O)O | 0.0537 µM | 0.0542 µM | 23.8 nm/s | 0.44 mg/mL (≈ 900 µM) | 46.8 µM | 0.47 | > 100 µM | > 100 µM |
| O=C([C@H]1CCCCN1C(=O)COc1ccccc1)N1Cc2cc(F)c(OC3CCOCC3)cc2C1 | 0.21 µM | 0.0768 µM | 35.7 nm/s | 0.037 mg/mL (≈ 76.7 µM) | > 100 µM | 2.45 | 1.31 µM | 0.507 µM |
| O=C([C@H]1CCCCN1C(=O)COc1ccccc1)N1Cc2cc(F)c(N3CCOCC3)cc2C1 | 0.229 µM | 0.106 µM | 83.1 nm/s | 0.07 mg/mL (≈ 150 µM) | > 100 µM | 2.01 | 2.01 µM | 0.54 µM |
| O=C([C@H]1CCCCN1C(=O)COc1ccccc1)N1Cc2ccc(O[C@@H]3CCOC3)cc2C1 | 0.0636 µM | 0.0416 µM | 115 nm/s | 0.081 mg/mL (≈ 180 µM) | > 100 µM | 2.58 | 1.41 µM | 0.489 µM |
| COc1ccc(Cl)cc1S(=O)(=O)c1cn(CCC(=O)O)c2ccc(C(=O)Nc3ccccc3)cc12 | 0.0071 µM | 0.003 µM | 3.9 nm/s | 0.251 mg/mL (≈ 489 µM) | 9.02 µM | 0.56 | > 100 µM | > 100 µM |
| COc1ccc(Cl)cc1CN(C(=O)C(C)C)c1cc(C(=O)Nc2nc(CC(=O)O)cs2)ccc1Cl | 0.236 µM | 0.44 µM | 32 nm/s | 0.438 mg/mL (≈ 816 µM) | 2.56 µM | 1.34 | > 100 µM | > 100 µM |
| COc1ccc(Cl)cc1S(=O)(=O)N1CCCCc2ccc(C(=O)Nc3nc(CC(=O)O)cs3)cc21 | 0.0472 µM | 0.017 µM | 34.6 nm/s | 0.216 mg/mL (≈ 403 µM) | 0.602 µM | 0.54 | > 100 µM | > 100 µM |
